Laboratory results from ChEMBL document CHEMBL5729393, “Inhibitors of blood coagulation factor XIII” (2022).
Where a SMILES comes first, the peptide text is derived from it. [ ]: non-standard residue; d: D form. The star is where a group is joined. ξ: configuration not given here. Nle(5E-ene,6-CO2Et) = CCOC(=O)/C=C/CC[C@H](N)C(=O)O; Oic(3aξ,7aξ) = O=C(O)[C@@H]1CC2CCCCC2N1; Cbz = O=C(OCc1ccccc1)*

Molecular target: T1, Coagulation factor XIII A chain (Homo sapiens, UniProt P00488)
T1 sequence (P00488 whole entry): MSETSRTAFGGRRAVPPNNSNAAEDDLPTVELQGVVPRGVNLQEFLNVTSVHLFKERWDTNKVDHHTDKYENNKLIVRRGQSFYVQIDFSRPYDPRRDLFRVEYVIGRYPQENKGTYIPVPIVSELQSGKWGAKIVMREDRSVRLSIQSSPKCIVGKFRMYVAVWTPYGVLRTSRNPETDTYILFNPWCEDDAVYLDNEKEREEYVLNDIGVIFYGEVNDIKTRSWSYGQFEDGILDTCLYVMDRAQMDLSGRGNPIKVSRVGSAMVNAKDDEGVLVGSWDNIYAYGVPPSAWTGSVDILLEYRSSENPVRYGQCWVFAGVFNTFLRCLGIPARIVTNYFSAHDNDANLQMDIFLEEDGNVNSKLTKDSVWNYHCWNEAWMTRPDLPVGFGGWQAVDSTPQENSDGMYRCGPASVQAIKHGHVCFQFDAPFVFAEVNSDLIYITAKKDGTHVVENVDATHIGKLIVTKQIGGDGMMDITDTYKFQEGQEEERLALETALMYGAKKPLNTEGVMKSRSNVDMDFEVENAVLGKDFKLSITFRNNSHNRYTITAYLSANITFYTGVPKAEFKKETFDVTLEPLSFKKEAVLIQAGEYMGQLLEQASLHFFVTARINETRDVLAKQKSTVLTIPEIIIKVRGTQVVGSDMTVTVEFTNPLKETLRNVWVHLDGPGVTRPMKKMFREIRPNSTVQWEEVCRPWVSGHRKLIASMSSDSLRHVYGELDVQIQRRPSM
Test: All measurements were performed in triplicate.

- IC50: > 10 µM
SMILES: CCOC(=O)/C=C/CC[C@H](NC(=O)OCc1ccccc1)C(=O)N[C@H](C(=O)N1C2CCCCC2C[C@H]1C(=O)N[C@@H](CC(C)C)C(N)=O)C(C)C (stereo partly drawn) (Cbz-[Nle(5E-ene,6-CO2Et)]V[Oic(3aξ,7aξ)]L-NH2)
